{"source": "patent US7358259B2", "about": "“HCV inhibitors and methods of using them” (Rigel Pharmaceuticals, Inc., priority 2003, dated 2008)", "data": [{"test_system": "HCV replicon in 5-2Luc replicon cells", "assay": "HCV Replicon Assay (luciferase)", "type": "cell-based", "settings": "Hepatitis C virus; Table 4; assay not given", "experimental": "Actively dividing 5-2Luc replicon cells were seeded at the density of 5000-7500 cells/well in the volume of 90 μl/well into 96 well plate(s). The cells were then incubated at 37° C. and 5% CO2 for 24 hours. The 5-2 cells are replicon cells licensed from Ralf Bartenschlager (Germany) and have a self-replicating RNA molecule in the Huh7 cell; the RNA contains HCV non-structural proteins that make the self-replication possible.\nVarious concentrations of compounds (in the volume of 10 μl) were added into each well 24 hours after seeding the cells. The cells were incubated for another 24 hours before luciferase assay.\nAfter incubating the 5-2 Luc replicon cells with the compounds for 24 hours, media were aspirated from each well and Bright-Glo ([…]) luciferase assay reagents were added to each well according to the manufacturer's manual. Briefly, the Bright-Glo reagent was diluted with equal volume of PBS and an aliquote (100 μl) was added to each well. After incubating the plate at room temperature for 5 minutes, luciferase counts were taken using a luminometer.", "units": {"IC50": "µM"}, "values": [{"smiles": "O=C(NOC1CCCCO1)c1cc2ccc(F)cc2n2c(Cl)nnc12", "note": "(stereo not shown) [1-chloro-8-fluoro-N-(tetrahydro-2H-py-ran-2-yloxy)-[1,2,4]tri-azolo[4,3-a]quinoline-4-car-boxamide]", "IC50": "> 10"}, {"smiles": "O=C(NO)c1cc2ccc(F)cc2n2c(Cl)nnc12", "note": "[1-chloro-8-fluoro-N-hydroxy-[1,2,4]tri-azolo[4,3-a]quinoline-4-car-boxamide]", "IC50": "< 10"}, {"smiles": "O=C(NO)c1cc2ccccc2nc1Cl", "note": "[2-chloro-N-hydroxyquinoline-3-car-boxamide]", "IC50": "> 10"}, {"smiles": "ClC(Cl)c1nnc(-c2cc3nnnn3c3ccccc23)o1", "note": "[5-(5-(dichloromethyl)-1,3,4-oxa-diazol-2-yl)tetrazolo[1,5-a]quino-line]", "IC50": "> 10"}, {"smiles": "O=C(NOC1CCCCO1)c1cc2c(Cl)cccc2n2nnnc12", "note": "(stereo not shown) [6-chloro-N-(tetrahydro-2H-pyran-2-yl-oxy)tetrazolo[1,5-a]quinoline-4-car-boxamide]", "IC50": "> 10"}, {"smiles": "O=C(NO)c1cc2c(Cl)cccc2n2nnnc12", "note": "[6-chloro-N-hydroxytetrazolo[1,5-a]quino-line-4-carboxamide]", "IC50": "< 10"}, {"smiles": "COc1cc2cc(C(=O)NOC3CCCCO3)c3nnnn3c2cc1OC", "note": "(stereo not shown) [7,8-dimethoxy-N-(tetrahydro-2H-py-ran-2-yloxy)tetrazolo[1,5-a]quino-line-4-carboxamide]", "IC50": "< 10"}, {"smiles": "O=C(NOC1CCCCO1)c1cc2cc(Cl)cc(Cl)c2n2cnnc12", "note": "(stereo not shown) [7,9-dichloro-N-(tetrahydro-2H-py-ran-2-yloxy)-[1,2,4]tri-azolo[4,3-a]quinoline-4-car-boxamide]", "IC50": "> 10"}, {"smiles": "O=C(NOC1CCCCO1)c1cc2cc(Cl)cc(Cl)c2n2nnnc12", "note": "(stereo not shown) [7,9-dichloro-N-(tetrahydro-2H-py-ran-2-yloxy)tetrazolo[1,5-a]quino-line-4-carboxamide]", "IC50": "> 10"}, {"smiles": "O=C(NO)c1cc2cc(Cl)cc(Cl)c2n2nnnc12", "note": "[7,9-dichloro-N-hy-droxytetrazolo[1,5-a]quinoline-4-car-boxamide]", "IC50": "< 10"}, {"smiles": "O=C(NO)c1cc2cc(Cl)cc(Cl)c2n2cnnc12", "note": "[7,9-dichloro-N-hydroxy-[1,2,4]tri-azolo[4,3-a]quinoline-4-car-boxamide]", "IC50": "< 10"}, {"smiles": "O=C(O)c1cc2cc(Cl)cc(Cl)c2n2cnnc12", "note": "[7,9-dichloro-[1,2,4]triazolo[4,3-a]quino-line-4-carboxylic acid]", "IC50": "> 10"}, {"smiles": "Cc1cc(C)c2c(c1)cc(C(=O)NOC1CCCCO1)c1nnnn12", "note": "(stereo not shown) [7,9-dimethyl-N-(tetrahydro-2H-py-ran-2-yloxy)tetrazolo[1,5-a]quino-line-4-carboxamide]", "IC50": "> 10"}, {"smiles": "O=C(NOC1CCCCO1)c1cc2cc(Cl)ccc2n2cnnc12", "note": "(stereo not shown) [7-chloro-N-(tetrahydro-2H-pyran-2-yl-oxy)-[1,2,4]triazolo[4,3-a]quino-line-4-carboxamide]", "IC50": "> 10"}, {"smiles": "O=C(NOC1CCCCO1)c1cc2cc(Cl)ccc2n2nnnc12", "note": "(stereo not shown) [7-chloro-N-(tetrahydro-2H-pyran-2-yl-oxy)tetrazolo[1,5-a]quinoline-4-car-boxamide]", "IC50": "> 10"}, {"smiles": "Cc1nnc2c(C(=O)NO)cc3cc(Cl)ccc3n12", "note": "[7-chloro-N-hydroxy-1-methyl-[1,2,4]tri-azolo[4,3-a]quinoline-4-car-boxamide]", "IC50": "< 10"}, {"smiles": "O=C(NO)c1cc2cc(Cl)ccc2n2cnnc12", "note": "[7-chloro-N-hydroxy-[1,2,4]tri-azolo[4,3-a]quinoline-4-car-boxamide]", "IC50": "< 10"}, {"smiles": "O=C(NO)c1cc2cc(Cl)ccc2n2nnnc12", "note": "[7-chloro-N-hydroxytetrazolo[1,5-a]quino-line-4-carboxamide]", "IC50": "< 10"}, {"smiles": "O=C(NO)c1cc2cc(F)ccc2n2nnnc12", "note": "[7-fluoro-N-hydroxytetrazolo[1,5-a]quino-line-4-carboxamide]", "IC50": "< 10"}, {"smiles": "COc1cc2cc(C(=O)NOC3CCCCO3)c3nnnn3c2cc1Cl", "note": "(stereo not shown) [8-chloro-7-methoxy-N-(tetra-hydro-2H-pyran-2-yl-oxy)tetrazolo[1,5-a]quinoline-4-car-boxamide]", "IC50": "> 10"}, {"smiles": "COc1cc2cc(C(=O)NO)c3nnnn3c2cc1Cl", "note": "[8-chloro-N-hydroxy-7-meth-oxytetrazolo[1,5-a]quino-line-4-carboxamide]", "IC50": "< 10"}, {"smiles": "CN(O)C(=O)c1cc2ccc(Cl)cc2n2nnnc12", "note": "[8-chloro-N-hydroxy-N-meth-yltetrazolo[1,5-a]quinoline-4-car-boxamide]", "IC50": "> 10"}, {"smiles": "O=C(NO)c1cc2ccc(Cl)cc2n2nnnc12", "note": "[8-chloro-N-hydroxytetrazolo[1,5-a]quino-line-4-carboxamide]", "IC50": "< 10"}, {"smiles": "O=C(O)c1cc2ccc(F)cc2n2cnnc12", "note": "[8-fluoro-[1,2,4]triazolo[4,3-a]quino-line-4-carboxylic acid]", "IC50": "> 10"}, {"smiles": "COc1ccc2cc(C(=O)NOC3CCCCO3)c3nnnn3c2c1", "note": "(stereo not shown) [8-methoxy-N-(tetrahydro-2H-py-ran-2-yloxy)tetrazolo[1,5-a]quino-line-4-carboxamide]", "IC50": "> 10"}, {"smiles": "O=C(NOC1CCCCO1)c1cc2cccc(Cl)c2n2nnnc12", "note": "(stereo not shown) [9-chloro-N-(tetrahydro-2H-pyran-2-yl-oxy)tetrazolo[1,5-a]quinoline-4-car-boxamide]", "IC50": "> 10"}, {"smiles": "O=C(NO)c1cc2cccc(Cl)c2n2nnnc12", "note": "[9-chloro-N-hydroxytetrazolo[1,5-a]quino-line-4-carboxamide]", "IC50": "< 10"}, {"smiles": "Cc1cccc2cc(C(=O)NOC3CCCCO3)c3nnnn3c12", "note": "(stereo not shown) [9-methyl-N-(tetrahydro-2H-pyran-2-yl-oxy)tetrazolo[1,5-a]quinoline-4-car-boxamide]", "IC50": "> 10"}, {"smiles": "O=C(NOC1CCCCO1)c1cc2ccccc2n2nnnc12", "note": "(stereo not shown) [N-(tetrahydro-2H-pyran-2-yl-oxy)tetrazolo[1,5-a]quinoline-4-car-boxamide]", "IC50": "> 10"}, {"smiles": "O=C(NOC1CCCCO1)c1cc2nnnn2c2ccccc12", "note": "(stereo not shown) [N-(tetrahydro-2H-pyran-2-yl-oxy)tetrazolo[1,5-a]quinoline-5-car-boxamide]", "IC50": "> 10"}, {"smiles": "O=C(NOC1CCCCO1)c1cc2ccc(OC(F)(F)F)cc2n2nnnc12", "note": "(stereo not shown) [N-(tetrahydro-2H-pyran-2-yloxy)-8-(tri-fluoromethoxy)tetrazolo[1,5-a]quino-line-4-carboxamide]", "IC50": "> 10"}, {"smiles": "COc1cc2cc(C(=O)NO)c3nnnn3c2cc1OC", "note": "[N-hydroxy-7,8-di-methoxytetrazolo[1,5-a]quino-line-4-carboxamide]", "IC50": "< 10"}, {"smiles": "Cc1cc(C)c2c(c1)cc(C(=O)NO)c1nnnn12", "note": "[N-hydroxy-7,9-di-methyltetrazolo[1,5-a]quino-line-4-carboxamide]", "IC50": "< 10"}, {"smiles": "O=C(NO)c1cc2cc3c(cc2n2nnnc12)OCCO3", "note": "[N-hydroxy-8,9-di-hydro[1,4]dioxino[2,3-g]tetra-zolo[1,5-a]quinoline-4-car-boxamide]", "IC50": "< 10"}, {"smiles": "O=C(NO)c1cc2ccc(OC(F)(F)F)cc2n2nnnc12", "note": "[N-hydroxy-8-(tri-fluoromethoxy)tetrazolo[1,5-a]quino-line-4-carboxamide]", "IC50": "< 10"}, {"smiles": "O=C(NO)c1cc2ccc(C(F)(F)F)cc2n2nnnc12", "note": "[N-hydroxy-8-(tri-fluoromethyl)tetrazolo[1,5-a]quino-line-4-carboxamide]", "IC50": "< 10"}, {"smiles": "COc1ccc2cc(C(=O)NO)c3nnnn3c2c1", "note": "[N-hydroxy-8-meth-oxytetrazolo[1,5-a]quino-line-4-carboxamide]", "IC50": "> 10"}, {"smiles": "Cc1cccc2cc(C(=O)NO)c3nnnn3c12", "note": "[N-hydroxy-9-methyltetrazolo[1,5-a]quino-line-4-carboxamide]", "IC50": "< 10"}, {"smiles": "O=C(NO)c1cnc2ccccc2c1", "note": "[N-hydroxyquinoline-3-car-boxamide]", "IC50": "> 10"}, {"smiles": "O=C(NO)c1cc2ccccc2n2nnnc12", "note": "[N-hydroxytetrazolo[1,5-a]quino-line-4-carboxamide]", "IC50": "< 10"}, {"smiles": "O=C(NO)c1cc2nnnn2c2ccccc12", "note": "[N-hydroxytetrazolo[1,5-a]quino-line-5-carboxamide]", "IC50": "> 10"}, {"smiles": "CCOC(=O)c1cc2cc(Cl)cc(Cl)c2n2cnnc12", "note": "[ethyl 7,9-dichloro-[1,2,4]tri-azolo[4,3-a]quinoline-4-car-boxylate]", "IC50": "> 10"}, {"smiles": "CCOC(=O)c1cc2cc(Cl)ccc2n2c(C)nnc12", "note": "[ethyl 7-chloro-1-methyl-[1,2,4]tri-azolo[4,3-a]quinoline-4-car-boxylate]", "IC50": "> 10"}, {"smiles": "CCOC(=O)c1cc2cc(Cl)ccc2n2cnnc12", "note": "[ethyl 7-chloro-[1,2,4]tri-azolo[4,3-a]quinoline-4-car-boxylate]", "IC50": "> 10"}, {"smiles": "COC(=O)c1cc2ccc(F)cc2n2cnnc12", "note": "[methyl 8-fluoro-[1,2,4]tri-azolo[4,3-a]quinoline-4-car-boxylate]", "IC50": "> 10"}, {"smiles": "COC(=O)c1cc2nnnn2c2ccccc12", "note": "[methyl tetrazolo[1,5-a]quinoline-5-car-boxylate]", "IC50": "> 10"}]}]}
